The source of these data is US4374284A, “Antiulcer, antiinflammatory, and antiallergic agent comprising as the main ingredient olean-12-ene-3β, 30-diol which is devoid of side effects of glycyrrhetinic acid and a new process for preparation of olean-12-ene-3β, 30-diol” (Minophagen Pharmaceutical Company, priority 1980, dated 1983).

Assay [1] concerns writhing induced by acetic acid. As to the kind of experiment: effect on writhing induced by acetic acid (analgesic action). Format: in vivo, male ddY mice. The note with it: for number of writhing: counted for 10 minutes, control 24.9 ± 1.6, ** p < 0.01. As for the experimental part:
(b) Effect on writhing induced by acetic acid (analgesic action)
The present compound olean-12-ene-3β, 30-diol (I) was administered orally to male ddY mice weighing 25-27 g. After 30 minutes, saline containing 0.7% acetic acid was administered intraperitoneally. The number of writhings of the mice was counted for 10 minutes from, 10 min. of the administration. Aspirin was used as the reference.
(In general: In writhing tests, fewer writhes than in controls are read as antinociception.)

For assay [2], the system named is PCA reaction (type I allergy). As to the kind of experiment: PCA test (type I allergy). Format: in vivo, male Wister rats. As for the experimental part: (a) PCA--Test (type I allergy)
Male Wister rats weighing […] were shaved at the abdomen. After 24 hours, 0.05 ml of serum diluted with saline (Blood samples were diluted to 1/32 and 1/64; The blood samples were collected from rats 3 weeks after administration of pertussis vaccine and egg albumin.) was injected intradermally at the abdomen. After 48 hours, compounds to be tested were administered intraperitoneally. Two hours thereafter, 0.5 ml./100 g of a solution of antigen and pigment (a solution of 0.4% egg albumin and 0.5% Pontamine sky blue) was administered. After 45 minutes, the rats were decapitated and bled, and the diameter of the pigment-leaking site under the skin was measured to obtain the area.

The test system of assay [3] is Arthus phenomenon (type III allergy). Description: Arthus phenomenon test (type III allergy). Format: in vivo, female guinea pig. As for the experimental part:
(b) Arthus phenomenon test (type III allergy)
To the back part of female guinea pig weighing 250-300 g, 10 mg/kg of egg albumin was administered subcutaneously. After 21 days, 2 mg/kg of egg albumin was administered intravenously, whereby death of the guinea pig due to anaphylactic shock was recognized to confirm establishment of sensitization. Thirty minutes after compounds to be tested were administered intraperitoneally, 0, 10, 100, 1000 μg/0.1 ml of egg albumin were each administered to the abdominal part which had been shaved.

Assay [4] relates to rat paw edema induced with carrageenin. As to the kind of experiment: test on rat paw edema induced with carrageenin (antiinflammatory). Format: in vivo, male Wister rats. As for the experimental part:
(a) Test on rat paw induced with carrageenin
To the plantar side of the hind paw of male Wister rats was administered subcutaneously 0.05 ml/rat of 10% saline solution of carrageenin. Edema after three hours was measured by the volume method and the rate of inhibition was assayed. Compounds were administered orally 30 minutes before administration of carrageenin. [formula]

The test system of assay [5] is aspirin-induced ulcer. Description: rat experiment on aspirin-induced ulcer, pylorus ligated (experiment a). Format: in vivo, male Wister rats. As for the experimental part:
(b) Rat experiment on aspirin-induced ulcer
(a) Experimental procedures:
Male Wister rats weighing about 220 g were made to fast for 24 hours. Water was given freely. The rats were laparotomized under anesthesia with ether. The stomach was drawn out and ligated at the pylorus. Immediately thereafter, 1% CMC suspension of aspirin was administered orally in a dose of 100 mg/kg/5 ml. Aqueous suspensions of compounds to be tested were prepared in the same manner as in the experiment (a) and administered intraduodenally at the same time. The wound was closed and the rats were set free. After 7 hours, the stomach was excised and ulcer was measured in the same manner as in the experiment (a).

Molecules are shown by their SMILES. “Also recorded” adds a separate entry of the source.

What is called inhibition is the drop in the measured response relative to a control, in per cent. Higher therefore signals a strong effect. For the compound `CC1(C)[C@@H](O)CC[C@]2(C)[C@H]3CC=C4[C@@H]5C[C@@](C)(CO)CC[C@]5(C)CC[C@@]4(C)[C@]3(C)CC[C@@H]12` [I, olean-12-ene-3β, 30-diol], the number of writhing in assay [1] (100 mg/kg p.o.) amounted to 15.5 ± 2.8; in assay [1] (200 mg/kg p.o.), 11.1 ± 1.6; in assay [1] (400 mg/kg p.o.), 8.0 ± 1.7. For the same compound, the “effect on writhing (in words)” value in assay [1] (increasing doses) is reported as “significantly decrease the number of writhing; also recorded: a little stronger than that of (II), but not so perfect as aspirin”. In addition, the area was 22.3 ± 9.1 mm^2 in assay [2] (serum 1/32, 100 mg/kg intraperitoneally, control 35.2 ± 5.3); 6.8 ± 4.6 mm^2 in assay [2] (serum 1/64, 100 mg/kg intraperitoneally, control 16.4 ± 2.8); 6.3 ± 4.8 mm^2 in assay [2] (serum 1/64, 200 mg/kg intraperitoneally, control 16.4 ± 2.8); 0 mm^2 in assay [3] (egg albumin 10 μg/0.1 ml, 100 mg/kg intraperitoneally, control 0); 0 mm^2 in assay [3] (egg albumin 10 μg/0.1 ml, 200 mg/kg intraperitoneally, control 0); 98 ± 98 mm^2 in assay [3] (egg albumin 100 μg/0.1 ml, 100 mg/kg intraperitoneally, control 110 ± 67). The area in assay [3] (egg albumin 100 μg/0.1 ml, 200 mg/kg intraperitoneally, control 110 ± 67) came to 30 ± 30 mm^2; in assay [3] (egg albumin 1000 μg/0.1 ml, 100 mg/kg intraperitoneally, control 409 ± 130) it was 334 ± 174 mm^2; in assay [3] (egg albumin 1000 μg/0.1 ml, 200 mg/kg intraperitoneally, control 409 ± 130), 76 ± 62 mm^2. In addition, the “PCA activity compared with (II) (in words)” value in assay [2] (serum diluted to 1/64) was “a little stronger than that of (II)”. In addition, the edema % in assay [4] (200 mg/kg p.o., after three hours, control 71 ± 6) was found to be 52 ± 5%. The same compound had an inhibition at 200 mg/kg in assay [4] (Rattus norvegicus, po, 3 h, edema, 200 mg/kg p.o., after three hours) of 26.8%. For the same compound, the “inhibitory activity against inflammation (in words)” value in assay [4] (rat, in vivo) is “has an inhibitory activity against inflammation, but the activity is inferior to that of aspirin; also recorded: will not affect the inhibitory activity of aspirin”. In addition, in assay [5] (320 mg/kg (head p.o.; text intraduodenally), aspirin 100 mg/kg, after 7 hours, control 14.1 ± 3.14), the ulcer index stood at 6.2 ± 2.37. For the same compound, in assay [5] (rat, in vivo), the “inhibitory effect on aspirin-induced ulcer, experiment (a) (in words)” value is given as “showed an inhibitory effect”.
